Test results as given in patent US20100216706A1, “Ghrelin Protects Substantia Nigra Dopamine Neurons” (priority 2007, published 2010).
No end group written: not given here. *: point of attachment. Octanoyl = CCCCCCCC(=O)*

What was measured:
[1] = tested on: SNpc DA neurons mitochondria; experiment: Mitochondria number in SNpc DA perikarya (electron microscopy); format: in vivo, mice
Source text: Mitochondria number: Animals were perfused and their brains were processed for TH immunolabeling for electron microscopic examination. Ultrathin sections were cut on a Leica ultra microtome, collected on Formvar-coated single-slot grids and analyzed with a Tecnai 12 Biotwin (FEI Company) electron microscope. Mitochondria were counted blindly from randomly selected sections, and Scion Image was used to normalize cytoplasmic area so that mitochondrial number per cell is expressed in square micrometers.
Given that ghrelin induces mitochondrial respiration as described above, an experiment was performed to test whether ghrelin could also alter mitochondrial number in the SNpc DA perikarya. […]
Therefore, an experiment was performed to test whether ghrelin increases mitochondrial number in the SNpc dopamine neurons. […] In line with this, UCP2 ko mice show reduced mitochondrial number in the SNpc dopamine neurons, which predisposes them to environmental toxins (Andrews et al., 2005, J Neurosci 25:184-191). Furthermore, mitochondrial dysfunction lies at the very heart of Parkinson's disease (Lin et al., 2006, Nature 443:787-795).

[2] = tested on: tyrosine hydroxylase (TH) mRNA; experiment: TH mRNA expression in the midbrain (real-time PCR); format: in vivo; conditions: three hours after ghrelin injection (10 nmols), wild-type mice; saline 1.03±0.15
Experimental: Real-time PCR: RNA was extracted from the midbrain of 8 ghrelin-treated mice or 8 saline-treated mice using TRIzol® (Invitrogen, Carlsbad, Calif.) according to the manufacturer's instructions. cDNA was synthesized using the First-Strand cDNA synthesis kit (Amersham Biosciences), using a total of 3 μg of total RNA in 15 μl of total volume. Real-time PCR analysis of TH mRNA (SEQ ID NO. 4: 5′ […] 3′; SEQ ID NO. 5: 5′ […] 3′) was performed using iQ SYBR green supermix (Bio-Rad) and […] of each primer. Primers for 18S were used as controls. Measurements were performed on an iCycler (Bio-Rad).
Tyrosine hydroxylase (TH) is the rate limiting enzyme of dopamine biosynthesis. An experiment was performed to examine whether ghrelin alters TH mRNA expression in the midbrain.

[3] = tested on: midbrain (SN-VTA) mitochondria; experiment: Mitochondrial respiration in midbrain of ghrelin-treated rats (Clark-type oxygen electrode); format: in vivo; conditions: 30 nmol IP, 3 hours
Experimental: Mitochondrial respiration: The ability of ghrelin to promote mitochondrial respiration was examined in mitochondria isolated from midbrain of ghrelin-treated rats (30 nmol) three hours after injection. Rats were used as the mitochondrial yield after isolation is much higher than the yield from mice. Mitochondrial respiration was also examined in the pooled midbrain of UCP2 ko and wt mice (3 pooled brains), 3 hours after ghrelin injection (IP 30 nmol).
Mitochondria were pooled from the SN-VTA (4 animals=1, total n=4) and isolated by differential centrifugation. Because of the size of the tissue dissected, it was impossible to solely isolate only the SNc, and as such the results are reported as SN-VTA. Briefly, the SN-VTA was rapidly dissected and homogenized in isolation buffer (215 mM Mannitol, 75 mM sucrose, 0.1% fatty acid free BSA, 20 mM Hepes, 1 mM EGTA, pH adjusted to 7.2 with KOH). The homogenate was spun at 1300×g for 3 minutes. The supernatant was removed, and the pellet was resuspended with isolation buffer and spun again at 1300×g for 3 minutes. The 2 sets of supernatant from each sample were topped off with isolation buffer and spun at 13000×g for 10 minutes. The supernatant was discarded, and this step was repeated. After this second spin at 13000×g, the supernatant was discarded, and the pellets were resuspended with isolation buffer without EGTA and spun at 10000×g for 10 minutes. The final mitochondrial pellet was resuspended with 50 μl of isolation buffer without EGTA. Protein concentrations were determined with a BCA protein assay kit (Pierce, Rockford, Ill., USA).
Mitochondrial respirations were assessed using a Clark-type oxygen electrode (Hansatech Instruments, Norfolk, England) at 37° C. with pyruvate and malate (5 mM and 2.5 mM) as oxidative substrates in respiration buffer (215 mM Mannitol, 75 mM sucrose, 0.1% fatty acid free BSA, 20 mM Hepes, 2 mM MgC1, 2.5 mM KH2PO4, pH adjusted to 7.2 with KOH). Following the addition of ADP and oligomycin, UCP-mediated proton conductance was measured as increased fatty acid-induced respiration (Echtay et al., 2002), which was then compared to state 4 respiration induced by oligomycin, an inhibitor of H^+ transporting ATP synthase.
To determine whether ghrelin influences mitochondrial metabolism in the SNpc, mitochondrial respiration was measured in isolated […] from the midbrain of ghrelin-treated wild-type rats.
Ghrelin was administered intraperitoneally (30 nmol) and food was removed for the three hours injection period prior to sacrifice as ingested calorie load and the postprandial increase in glucose and insulin are known to reduce ghrelin effectiveness (Callahan et al., 2004, J Clin Endocrinol Metab 89: 1319-24; Cummings et al., 2006, Physiol Behav 89: 71-84). […] Subsequent blocking of the ATP synthase with oligomycin produced greater basal uncoupling after ghrelin (saline 31.4±1.4 vs ghrelin 50.4±1.5, p<0.0001; FIG. 4A). Palmitate (free fatty-acid) induced respiration was also elevated in ghrelin-treated rats (saline 125.0±3.8 vs ghrelin 185.3±9.3, p<0.001; FIG. 4A). Finally, ghrelin increased FCCP-driven respiration, an index of total uncoupling capacity of the inner mitochondrial membrane (FIG. 4A).

ghrelin (GSS(Octanoyl)FLSPEHQRVQQRKESKKPPAKLQPR; listed as Homo sapiens) [28 amino acid acyl-peptide esterified with octanoic acid on Ser3; endogenous ligand of GHSR]
Mitochondrial number in DA perikarya of the SNpc ([1]; mice, three hours after ghrelin injection, saline 0.46±0.03): 0.62±0.03 μm^2 | Mitochondrial number in SNpc dopamine neurons, UCP2 ko mice ([1]; two hours after ghrelin injection, saline 0.45±0.03): 0.39±0.03 μm^2 | Mitochondrial number in SNpc dopamine neurons, UCP2 wt mice ([1]; two hours after ghrelin injection, saline 0.46±0.03): 0.62±0.03 μm^2 | TH mRNA expression in the midbrain [2]: 2.86±0.46 | FCCP-driven respiration [3]: increased | Basal uncoupling after oligomycin ([3]; saline 31.4±1.4): 50.4±1.5 | Mitochondrial respiration after pyruvate and malate ([3]; saline 33.5±2.1): 49.5±1.9 | Palmitate induced respiration ([3]; saline 125.0±3.8): 185.3±9.3 | Mitochondrial respiration after ADP ([3]; saline 128.3±7.5): 185.2±17.7
